Laboratory results published in PubChem BioAssay (NCI).
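Assay format: 96-well plates, 48-hour exposure. TGI: total growth inhibition.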

How the values were obtained:
Test in all cases: growth of human tumour cells (NCI), 48 h
[1] = system: 786-0 renal
[2] = system: A498 renal
[3] = system: A549 NSCLC
[4] = system: ACHN renal
[5] = system: BT-549 breast
[6] = system: CAKI-1 renal
[7] = system: CCRF-CEM leukemia
[8] = system: COLO 205 colon
[9] = system: DU-145 prostate
[10] = system: EKVX NSCLC
[11] = system: HCC-2998 colon
[12] = system: HCT-116 colon
[13] = system: HCT-15 colon
[14] = system: HL-60(TB) leukemia
[15] = system: HOP-62 NSCLC
[16] = system: HOP-92 NSCLC
[17] = system: HS 578T breast
[18] = system: HT29 colon
[19] = system: IGROV1 ovarian
[20] = system: K-562 leukemia
[21] = system: KM12 colon
[22] = system: LOX IMVI melanoma
[23] = system: M14 melanoma
[24] = system: MALME-3M melanoma
[25] = system: MCF7 breast
[26] = system: MDA-MB-231 breast
[27] = system: MDA-MB-435
[28] = system: MDA-N
[29] = system: MOLT-4 leukemia
[30] = system: NCI-H226 lung
[31] = system: NCI-H23 lung
[32] = system: NCI-H460 lung
[33] = system: NCI-H522 lung
[34] = system: NCI/ADR-RES ovarian
[35] = system: OVCAR-3 ovarian
[36] = system: OVCAR-4 ovarian
[37] = system: OVCAR-5 ovarian
[38] = system: OVCAR-8 ovarian
[39] = system: PC-3 prostate
[40] = system: RPMI-8226 leukemia
[41] = system: RXF 393 renal
[42] = system: SF-268 CNS
[43] = system: SF-295 CNS
[44] = system: SF-539 CNS
[45] = system: SK-MEL-2 melanoma
[46] = system: SK-MEL-28 melanoma
[47] = system: SK-MEL-5 melanoma
[48] = system: SK-OV-3 ovarian
[49] = system: SN12C renal
[50] = system: SNB-19 CNS
[51] = system: SNB-75 CNS
[52] = system: SR leukemia
[53] = system: SW-620 colon
[54] = system: T-47D breast
[55] = system: TK-10 renal
[56] = system: U251 CNS
[57] = system: UACC-257 melanoma
[58] = system: UACC-62 melanoma
[59] = system: UO-31 renal

c1ccc2cc(CN3CCC(C4CCN(Cc5ccc6ccccc6c5)CC4)CC3)ccc2c1
TGI [1]: 11.1 µM | TGI [2]: 26.2 µM | TGI [3]: 17.1 µM | TGI [4]: 17 µM | TGI [5]: 27.4 µM | TGI [6]: 15 µM | TGI [7]: > 43.4 µM | TGI [8]: 3.96 µM | TGI [9]: 38.2 µM | TGI [10]: 29.6 µM | TGI [11]: 3.13 µM | TGI [12]: 18.4 µM | TGI [13]: 15.1 µM | TGI [14]: 4.45 µM | TGI [15]: 7.84 µM | TGI [16]: 12.2 µM | TGI [17]: 6.6 µM | TGI [18]: 6.42 µM | TGI [19]: 22.5 µM | TGI [20]: > 100 µM | TGI [21]: 7.99 µM | TGI [22]: 13.2 µM | TGI [23]: 3.71 µM | TGI [24]: 3.71 µM | TGI [25]: 8.66 µM | TGI [26]: 22.1 µM | TGI [27]: 3.09 µM | TGI [28]: 3.91 µM | TGI [29]: 33.3 µM | TGI [30]: 33.1 µM | TGI [31]: 26.9 µM | TGI [32]: 11 µM | TGI [33]: 4.28 µM | TGI [34]: 22.1 µM | TGI [35]: 11.1 µM | TGI [36]: 21.7 µM | TGI [37]: 24.9 µM | TGI [38]: 17.9 µM | TGI [39]: 22.9 µM | TGI [40]: 7.44 µM | TGI [41]: 8.51 µM | TGI [42]: 25.8 µM | TGI [43]: 3.74 µM | TGI [44]: 4.15 µM | TGI [45]: 4.87 µM | TGI [46]: 3.93 µM | TGI [47]: 3.38 µM | TGI [48]: 22.4 µM | TGI [49]: 44.5 µM | TGI [50]: 27.2 µM | TGI [51]: 6.8 µM | TGI [52]: 15.6 µM | TGI [53]: 15.6 µM | TGI [54]: > 22.8 µM | TGI [55]: 13.1 µM | TGI [56]: 8.49 µM | TGI [57]: 3.68 µM | TGI [58]: 3.91 µM | TGI [59]: 3.03 µM

COC(=O)c1cc2c3c(c1)Oc1cc(C(=O)OC)cc4c1C3c1c(cc(C(=O)OC)cc1O4)O2
TGI [1]: 23 µM | TGI [2]: > 94.6 µM | TGI [3]: > 48.3 µM | TGI [4]: 26.2 µM | TGI [5]: > 100 µM | TGI [6]: 27.8 µM | TGI [7]: 96.9 µM | TGI [8]: > 91.5 µM | TGI [9]: > 41.3 µM | TGI [10]: 46.4 µM | TGI [11]: > 100 µM | TGI [12]: > 100 µM | TGI [13]: > 100 µM | TGI [14]: > 29.3 µM | TGI [15]: 23.5 µM | TGI [16]: > 31.6 µM | TGI [17]: 41.1 µM | TGI [18]: 38.3 µM | TGI [19]: 26.5 µM | TGI [20]: > 100 µM | TGI [21]: > 49.7 µM | TGI [22]: > 46.1 µM | TGI [23]: > 95.7 µM | TGI [24]: 37.2 µM | TGI [25]: > 56.3 µM | TGI [26]: > 100 µM | TGI [27]: > 100 µM | TGI [28]: > 100 µM | TGI [29]: > 100 µM | TGI [30]: 13.6 µM | TGI [31]: > 72 µM | TGI [32]: > 100 µM | TGI [33]: 15.5 µM | TGI [34]: 13 µM | TGI [35]: 33 µM | TGI [36]: > 100 µM | TGI [37]: > 66.1 µM | TGI [38]: 17.1 µM | TGI [39]: > 53.6 µM | TGI [40]: > 100 µM | TGI [41]: 16.5 µM | TGI [42]: 30 µM | TGI [43]: 26.4 µM | TGI [44]: 33 µM | TGI [45]: > 100 µM | TGI [46]: > 100 µM | TGI [47]: 14.3 µM | TGI [48]: 42.4 µM | TGI [49]: > 100 µM | TGI [50]: > 62.9 µM | TGI [51]: 20 µM | TGI [52]: > 100 µM | TGI [53]: > 100 µM | TGI [54]: > 100 µM | TGI [55]: > 56.9 µM | TGI [56]: 41.8 µM | TGI [57]: > 100 µM | TGI [58]: > 75.5 µM | TGI [59]: > 100 µM
